Values after ≈ are worked out from the molar mass of the structure shown. One block for each compound: values may come before it.
Tests used:
[1] = In vitro penetration across isolated human skin in modified Franz cells; conditions: for In vitro Penetration Rate (apparent flux), HPPs of sulfonamides, sulfones, quinolones / In vitro Penetration Rate (apparent flux), HPPs: pH 7.4
Protocol: Penetration rates of HPPs and their parent drugs through human skin were measured in vitro by modified Franz cells. A Franz cell had two chambers, the top sample chamber and the bottom receiving chamber. The human skin tissue (360-400 μm thick) that separated the top and the receiving chambers was isolated from the anterior or posterior thigh areas.
A test compound (2 mL, 10% in 0.2 M phosphate buffer, pH 7.4) was added to the sample chamber of a Franz cell. The receiving chamber contained 10 ml of 0.2 M phosphate buffer which was stirred at 600 rpm. The amount of the tested compound penetrating the skin was determined by high-performance liquid chromatography (HPLC) method.

E. faecalis = assay: MIC against E. faecalis; format: cell-based; conditions: Table 6c
E. coli [2] = assay: MIC against E. coli; conditions: for MIC, E. coli: Table 6c
S. aureus = assay: MIC against S. aureus; conditions: for MIC, S. aureus: Table 6c
[3] = Clinical cure of cow mastitis, topical treatment; format: in vivo, lactating dairy cows; conditions: cows, 500 mg in 10 ml pH 7.4 phosphate buffer sprayed on skin of udder twice per day
Protocol: (§1) 90 lactating dairy cows were recruited. Bacteriological cure was considered to have been achieved if the samples taken from the affected quarter on day 17 and day 22 were free of the bacterial species isolated in the pretreatment sample. Clinical cure was defined as the disappearance of clinical signs of disease which were observed on day 1 before treatment, in other words by the return to normal feed intake, rectal temperature<39.0° C., good general condition, absence of udder edema, normal milk appearance, and normal milk yield.

Aspergillus giganteus = assay: Antifungal MIC in vitro; format: cell-based
Fusarium oxisporum = assay: Antifungal MIC in vitro; format: cell-based
[4] = system: Trichophyton mentagrophytes; assay: Antifungal MIC in vitro; format: cell-based
Microsporum canis = assay: Antifungal MIC in vitro; format: cell-based
Aspergillus nidulans = assay: Antifungal MIC in vitro; format: cell-based
Fusarium aquaductum = assay: Antifungal MIC in vitro; format: cell-based
Aspergillus niger = assay: Antifungal MIC in vitro; format: cell-based
E. coli [5] = assay: Bacteriological cure of cow mastitis, topical treatment; format: in vivo; conditions: cows, day 22, topical 500 mg twice per day
Protocol: as §1

Staphylococcus aureus = assay: as above; format: in vivo; conditions: cows, day 22, topical 500 mg twice per day
Protocol: as §1

Streptococcus uberis = assay: as above; format: in vivo; conditions: cows, day 22, topical 500 mg twice per day
Protocol: as §1

Enterobacteriaceae = assay: as above; format: in vivo; conditions: cows, day 22, topical 500 mg twice per day
Protocol: as §1

[6] = system: Coagulase-negative staphylococci; assay: as above; format: in vivo; conditions: cows, day 22, topical 500 mg twice per day
Protocol: as §1

Candida albicans = assay: Antifungal MIC in vitro; format: cell-based
Aspergillus tereus = assay: Antifungal MIC in vitro; format: cell-based
[7] = system: Penicillium carylophilium; assay: Antifungal MIC in vitro; format: cell-based
[8] = Conversion of HPPs to parent drugs in human plasma (half life); format: in vitro ADME
Protocol: HPPs of antimicrobials or antimicrobial-related compounds converted to the parent antimicrobials or antimicrobial-related compounds quickly in good yield in human plasma.
A HPP of antimicrobial or antimicrobial-related compound (10 mg) was dissolved in 0.1 ml of 0.2M pH 7.4 phosphate buffer. 1 ml of human plasma, preheated to 37° C., was added into the mixture. The mixture was kept in a water bath at 37° C., and at every 2 min intervals 0.2 ml of samples were withdrawn and added to 0.4 ml of methanol to precipitate the plasma protein.

K. pneumonlae = assay: MIC against K. pneumonlae; format: cell-based; conditions: Table 6b; combinations antibiotic/inhibitor
B. fragilis = assay: MIC against B. fragilis; format: cell-based; conditions: Bacteroides fragilis; Table 6b; combinations antibiotic/inhibitor
E. cloacae = assay: MIC against E. cloacae; format: cell-based; conditions: Enterobacter cloacae; Table 6b; combinations antibiotic/inhibitor
[9] = system: methicillin-resistant Staphylococcus aureus (MRSA); assay: MIC against MRSA; format: cell-based; conditions: Staphylococcus aureus, MRSA; Table 6a; read-out: MIC

SMILES: CCCCOC(=O)c1cn(C2CC2)c2cc(N3CCNCC3)c(F)cc2c1=O.Cl [ciprofloxacin-BE, 1-cyclopropyl-6-fluoro-4-oxo-7-piperazin-1-yl-quinoline-3-carboxylic acid butyl ester•HCl salt]
In vitro Penetration Rate (apparent flux), HPPs of sulfonamides, sulfones, quinolones [1]: 0.29 ± 0.02 mg/cm^2/h
MIC, E. faecalis (E. faecalis): 0.05 mg/L
MIC, E. coli (E. coli [2]): 0.2 mg/L
MIC, S. aureus (S. aureus): 5 mg/L

SMILES: CCN(CC)CCOC(=O)C1N2C(=O)C(NC(=O)c3c(OC)cccc3OC)C2SC1(C)C.Cl (stereo not drawn) [methicillin-DEE, 6-(2,6-dimethoxybenzamido)penicillinic acid 2-diethylaminoethyl ester hydrochloride]
Clinical Cure Rate, Day 3 [3]: 43%
Clinical Cure Rate, Day 8 [3]: 90%
Clinical Cure Rate, Day 15 [3]: 97%
Clinical Cure Rate, Day 22 [3]: 100%
Minimum inhibitory concentration, Aspergillus giganteus (Aspergillus giganteus): 9 mg/L
Minimum inhibitory concentration, Fusarium oxisporum (Fusarium oxisporum): 8 mg/L
Minimum inhibitory concentration, Trichophyton mentagrophytes [4]: 22 mg/L
Minimum inhibitory concentration, Microsporum canis (Microsporum canis): 8 mg/L
Minimum inhibitory concentration, Aspergillus nidulans (Aspergillus nidulans): 8 mg/L
Minimum inhibitory concentration, Fusarium aquaductum (Fusarium aquaductum): 10 mg/L
Minimum inhibitory concentration, Aspergillus niger (Aspergillus niger): 9 mg/L
Bacteriological cure rate, E. coli (E. coli [5]): 80%
Bacteriological cure, No. cured, E. coli (E. coli [5]): 8
Bacteriological cure rate, Staphylococcus aureus (Staphylococcus aureus): 80%
Bacteriological cure, No. cured, Staphylococcus aureus (Staphylococcus aureus): 4
Bacteriological cure rate, Streptococcus uberis (Streptococcus uberis): 70%
Bacteriological cure, No. cured, Streptococcus uberis (Streptococcus uberis): 7
Bacteriological cure rate, Enterobacteriaceae (Enterobacteriaceae): 75%
Bacteriological cure, No. cured, Enterobacteriaceae (Enterobacteriaceae): 6
Bacteriological cure rate, Coagulase-negative staphylococci [6]: 85.7%
Bacteriological cure, No. cured, Coagulase-negative staphylococci [6]: 6
Minimum inhibitory concentration, Candida albicans (Candida albicans): 16 mg/L
Minimum inhibitory concentration, Aspergillus tereus (Aspergillus tereus): 12 mg/L
Minimum inhibitory concentration, Penicillium carylophilium [7]: 9 mg/L
Half life of HPPs in plasma ([8]; human plasma, 37° C.): 10 ± 1 min

MIC (K. pneumonlae): 0.5 mg/L
MIC (B. fragilis): 8 mg/L
MIC (E. cloacae): 1 mg/L
SMILES: CO/N=C(\C(=O)N[C@@H]1C(=O)N2C(C(=O)O)=C(CSc3nc(=O)c(=O)[nH]n3C)CS[C@H]12)c1csc(N)n1 [Ceftriaxone]

SMILES: CCN(CC)CCOC(=O)C1N2C(=O)C(NC(=O)COc3ccccc3)C2SC1(C)C.Cl (stereo not drawn) [penicillin V-DEE, 6-phenoxyacetacetamidopenicillanic acid 2-diethylaminoethyl ester hydrochloride]
Clinical Cure Rate, Day 3 [3]: 50%
Clinical Cure Rate, Day 8 [3]: 90%
Clinical Cure Rate, Day 15 [3]: 93%
Clinical Cure Rate, Day 22 [3]: 97%
Minimum inhibitory concentration, Aspergillus giganteus (Aspergillus giganteus): 3 mg/L
In vitro Penetration Rate (apparent flux), HPPs [1]: 0.72 ± 0.06 mg/cm^2/h
Minimum inhibitory concentration, Fusarium oxisporum (Fusarium oxisporum): 3 mg/L
Minimum inhibitory concentration, Trichophyton mentagrophytes [4]: 12 mg/L
Minimum inhibitory concentration, Microsporum canis (Microsporum canis): 2 mg/L
Minimum inhibitory concentration, Aspergillus nidulans (Aspergillus nidulans): 3 mg/L
Minimum inhibitory concentration, Fusarium aquaductum (Fusarium aquaductum): 2 mg/L
Minimum inhibitory concentration, Aspergillus niger (Aspergillus niger): 3 mg/L
Bacteriological cure rate, E. coli (E. coli [5]): 87.5%
Bacteriological cure, No. cured, E. coli (E. coli [5]): 7
Bacteriological cure rate, Staphylococcus aureus (Staphylococcus aureus): 67%
Bacteriological cure, No. cured, Staphylococcus aureus (Staphylococcus aureus): 4
Bacteriological cure rate, Streptococcus uberis (Streptococcus uberis): 80%
Bacteriological cure, No. cured, Streptococcus uberis (Streptococcus uberis): 8
Bacteriological cure rate, Enterobacteriaceae (Enterobacteriaceae): 85.7%
Bacteriological cure, No. cured, Enterobacteriaceae (Enterobacteriaceae): 6
Bacteriological cure rate, Coagulase-negative staphylococci [6]: 78%
Bacteriological cure, No. cured, Coagulase-negative staphylococci [6]: 7
Minimum inhibitory concentration, Candida albicans (Candida albicans): 7 mg/L
Minimum inhibitory concentration, Aspergillus tereus (Aspergillus tereus): 2 mg/L
Minimum inhibitory concentration, Penicillium carylophilium [7]: 2 mg/L
Half life of HPPs in plasma ([8]; human, plasma): 8 ± 1 min

SMILES: CCN(CC)CCOC(=O)C1=CCSC2C(NC(=O)C(=NOC)c3csc(NC(C)=O)n3)C(=O)N12.Cl (stereo not drawn) [ceftizoxime-DEE, 7-[[(2-acetylamino-4-thiazolyl)(methoxyimino)acetyl]amino]-8-oxo-5-thia-1-azabicyclo[4.2.0]oct-2-ene-2-carboxylic acid 2-diethylaminoethyl ester hydrochloride]
Clinical Cure Rate, Day 3 [3]: 53%
Clinical Cure Rate, Day 8 [3]: 93%
Clinical Cure Rate, Day 15 [3]: 99%
Clinical Cure Rate, Day 22 [3]: 100%
MIC (Aspergillus giganteus; Aspergillus giganteus, read-out: Minimum inhibitory concentration, Aspergillus giganteus): 5 mg/L
In vitro Penetration Rate (apparent flux), HPPs ([1]; human, 10 %): 0.62 ± 0.05 mg/cm^2/h
MIC (Fusarium oxisporum; Fusarium, read-out: Minimum inhibitory concentration, Fusarium oxisporum): 5 mg/L
MIC ([4]; Trichophyton mentagrophytes, read-out: Minimum inhibitory concentration, Trichophyton mentagrophytes): 9 mg/L
MIC (Microsporum canis; Microsporum canis, read-out: Minimum inhibitory concentration, Microsporum canis): 2 mg/L
MIC (Aspergillus nidulans; Aspergillus nidulans, read-out: Minimum inhibitory concentration, Aspergillus nidulans): 4 mg/L
MIC (Fusarium aquaductum; Fusarium, read-out: Minimum inhibitory concentration, Fusarium aquaductum): 3 mg/L
MIC [9]: 0.5 mg/L
MIC (Aspergillus niger; Aspergillus niger, read-out: Minimum inhibitory concentration, Aspergillus niger): 4 mg/L
Bacteriological cure rate, E. coli (E. coli [5]): 87.5%
Bacteriological cure, No. cured, E. coli (E. coli [5]): 7
Bacteriological cure rate, Staphylococcus aureus (Staphylococcus aureus): 83%
Bacteriological cure, No. cured, Staphylococcus aureus (Staphylococcus aureus): 5
Bacteriological cure rate, Streptococcus uberis (Streptococcus uberis): 82%
Bacteriological cure, No. cured, Streptococcus uberis (Streptococcus uberis): 9
Bacteriological cure rate, Enterobacteriaceae (Enterobacteriaceae): 83.3%
Bacteriological cure, No. cured, Enterobacteriaceae (Enterobacteriaceae): 5
Bacteriological cure rate, Coagulase-negative staphylococci [6]: 87.5%
Bacteriological cure, No. cured, Coagulase-negative staphylococci [6]: 7
MIC (Candida albicans; Candida albicans, read-out: Minimum inhibitory concentration, Candida albicans): 8 mg/L
MIC (Aspergillus tereus; Aspergillus, read-out: Minimum inhibitory concentration, Aspergillus tereus): 4 mg/L
MIC ([7]; Penicillium, read-out: Minimum inhibitory concentration, Penicillium carylophilium): 3 mg/L
half-life at 9.1 mg/mL ([8]; human, plasma, pH 7.4): 11 min

SMILES: CCn1cc(C(=O)O)c(=O)c2ccc(C)nc21 [nalidixic acid, 1-ethyl-7-methyl-4-oxo-[1,8]naphthyridine-3-carboxylic acid]
MIC (E. faecalis; Enterococcus faecalis): 64 mg/L (≈ 276 µM)
MIC (E. coli [2]; Escherichia coli, read-out: MIC, E. coli): 6 mg/L (≈ 25.8 µM)
MIC (S. aureus; Staphylococcus aureus, read-out: MIC, S. aureus): 158 mg/L (≈ 680 µM)

In vitro Penetration Rate (apparent flux), Parent compounds ([1]; Table 1a, isolated human skin, Franz cells, 10% in 0.2 M phosphate buffer pH 7.4, n=5): <0.015 mg/cm^2/h
MIC (K. pneumonlae): 0.3 mg/L
MIC (B. fragilis): 68 mg/L
MIC (E. cloacae): 5 mg/L
SMILES: CC1(C)S[C@@H]2[C@H](NC(=O)[C@H](N)c3ccccc3)C(=O)N2[C@H]1C(=O)O [Ampicillin]

SMILES: CCN(CC)CCOC(=O)c1cn(CC)c2nc(C)ccc2c1=O.Cl [nalidixic acid-DEE, 1-ethyl-7-methyl-4-oxo-[1,8]naphthyridine-3-carboxylic acid N,N-diethylaminoethyl ester•HCl salt]
In vitro Penetration Rate (apparent flux), HPPs of sulfonamides, sulfones, quinolones [1]: 0.25 ± 0.04 mg/cm^2/h
MIC, E. faecalis (E. faecalis): 1 mg/L
MIC, E. coli (E. coli [2]): 0.2 mg/L
MIC, S. aureus (S. aureus): 5 mg/L
